Data taken from patent US20150099709A1, “GHRELIN RECEPTOR AGONISTS FOR THE TREATMENT OF ACHLORHYDRIA” (RaQualia Pharma Inc., priority 2012, published 2015).

Tested on: intra-gastric pH
Test: Measurement of intra-gastric pH in dogs (gastric fistula, pH electrode)
Format: in vivo, dog
Details: for change of intra-gastric pH value after dosing / time for which the low intra-gastric pH is maintained: dogs, orally, dose not given
Protocol: Male beagle dogs are used. A metallic cannula is placed in on the left side of the abdomen at the lowest part of the distal gastric corpus region near the greater curvature by a surgical operation. Intra-gastric pH is measured continuously by a flexible pH electrode inserted via the gastric fistula. Vehicle or drugs are administered orally to the dogs.
Compound A 3 mg/kg is orally administered to dogs in a similar way described in Example 1. Intra-gastric pH value is between 2 and 7 in the vehicle-treated conscious dogs.

SMILES	time for which the low intra-gastric pH value is maintained (male beagle dogs, 3 mg/kg orally)	intra-gastric pH value maintained after administration (male beagle dogs, 3 mg/kg orally, both dogs)	change of intra-gastric pH value after administration (male beagle dogs, 3 mg/kg orally, conscious, FIG. 2)	change of intra-gastric pH value after dosing	time for which the low intra-gastric pH is maintained
CN1N=C2CCN(C(=O)[C@@H](COCc3ccccc3)NC(=O)C(C)(C)N)C[C@@]2(Cc2ccccc2)C1=O [Compound A, 2-amino-N-[2-(3a-(R)-benzyl-2-methyl-3-oxo-2,3,3a,4,6,7-hexahydropyrazolo[4,3-c]pyridin-5-yl)-1-(R)-benzyloxymethyl-2-oxo-ethyl]isobutyramide]	more than 3 hours	below 2.5	rapidly decreases after the administration		
CC(C)(N)C(=O)N[C@H](COCc1ccc(F)cc1F)C(=O)N1CCC2=NN(CC(F)(F)F)C(=O)[C@]2(Cc2ccccn2)C1 [Compound B, 2-amino-N-[1-(R)-(2,4-difluoro-benzyloxymethyl)-2-oxo-2-(3-oxo-3a-(R)-pyridin-2-ylmethyl-2-(2,2,2-trifluoro-ethyl)-2,3,3a,4,6,7-hexahydropyrazolo[4,3-c]pyridin-5-yl)-ethyl]-2-methyl-propionamide]				decreases soon just after dosing	more than 3 hours
CN(C)N(C)C(=O)[C@@]1(Cc2ccccc2)CCCN(C(=O)[C@@H](Cc2c[nH]c3ccccc23)NC(=O)C(C)(C)N)C1 [Compound C]				decreases soon just after dosing	more than 3 hours
CN(C(=O)/C=C/CC1(N)CCC1)[C@H](Cc1ccc(-c2ccccc2)cc1)C(=O)N(C)[C@H](Cc1ccccc1)C(=O)N1CCC(O)CC1 [Compound D, (E)-N—((R)-3-([1,1′-biphenyl]-4-yl)-1-(((R)-1-(4-hydroxypiperidin-1-yl)-1-oxo-3-phenylpropan-2-yl)(methyl)amino)-1-oxopropan-2-yl)-4-(1-aminocyclobutyl)-N-methylbut-2-enamide]				decreases soon just after dosing	more than 3 hours
C[C@@H]1CN[C@@H](C2CC2)C(=O)N(C)[C@H](C)C(=O)N[C@H](Cc2ccc(F)cc2)C(=O)NCCCc2ccccc2O1 [Compound E, (2R,5S,8R,11R)-5-cyclopropyl-11-(4-fluorobenzyl)-2,7,8-trimethyl-4,5,7,8,10,11,13,14,15,16-decahydro-2H-benzo[q][1,4,7,10,13]oxatetraazacyclooctadecine-6,9,12(3H)-trione]				decreases soon just after dosing	more than 3 hours
